Experimental findings from ChEMBL document CHEMBL1201862, “PubChem BioAssay data set” (2004) are described below.

Some test systems named below: ACHN; CAKI-1; COLO 205; EKVX; HCC 2998; HCT-15; HOP-62; HOP-92; K562; LOX IMVI; MOLT-4; OVCAR-3; RXF 393; SK-OV-3; SN12C; SNB-19; UACC-257; SF-268; SF-539.
Test in all cases: NCI-60 cell line screen, 48 h

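Briefly, cells in 96-well plates were exposed to five compound concentrations for 48 h, and endpoints were estimated by linear interpolation. Here, GI50 denotes the concentration required for 50% inhibition of growth.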 Active and inactive are the calls of the source. Rule as the data show it: active = GI50 up to about 1.1 µM and inactive = higher.

In the case of `Cc1ccc(S(=O)(=O)OC2CC=CC2)cc1`, the GI50 in the assay with ACHN was > 100 µM (inactive); in the assay with CAKI-1, > 100 µM (inactive); in the assay with COLO 205, > 100 µM (inactive); in the assay on EKVX, > 100 µM (inactive); in the assay with HCC 2998 it was > 100 µM (inactive); with HCT-15, more than 100 µM. Further, the GI50 with HOP-62, in the assay on HOP-92, with K562, in the assay with LOX IMVI, in the assay on MOLT-4 and in the assay on OVCAR-3 was > 100 µM (inactive) each time. For the same compound, the GI50 in the assay on RXF 393, in the assay with SK-OV-3, in the assay on SN12C, in the assay on SNB-19 and in the assay on UACC-257 was > 100 µM (inactive) each time.
Take `CC(C)C1(O)C(c2ccccc2)=C(c2ccccc2)C(c2ccccc2)=C1c1ccccc1`: the GI50 is 11.7 µM (inactive) with CAKI-1; 10.1 µM (inactive) in the assay with COLO 205; 5.28 µM (inactive) in the assay with EKVX; 8.69 µM (inactive) in the assay on HCC 2998; 5.22 µM in the assay on HCT-15; 12.1 µM (inactive) in the assay with HOP-62. For the same compound, the GI50 in the assay with HOP-92 is 4.38 µM (inactive); in the assay on K562, 3.52 µM (inactive); in the assay on LOX IMVI it was 6.59 µM (inactive); in the assay on MOLT-4, 3.21 µM (inactive); in the assay on OVCAR-3, 4.71 µM (inactive); with RXF 393, 2.82 µM (inactive). For the same compound, the GI50 in the assay on SF-268 was 4.49 µM (inactive); in the assay on SF-539 it was 12.5 µM (inactive); in the assay on SK-OV-3, 15.2 µM (inactive); with SN12C, 5.31 µM (inactive); in the assay with SNB-19 it was 21.8 µM (inactive); in the assay with UACC-257, 5.36 µM (inactive).
In the case of `COc1ccc(/N=c2\ssc3c(=S)ssc23)cc1`, the GI50 is 23.8 µM (inactive) in the assay with ACHN; 91.4 µM (inactive) in the assay with CAKI-1; 37.2 µM (inactive) in the assay with HCC 2998; 18.3 µM in the assay on HCT-15; > 100 µM (inactive) in the assay on HOP-62; 15.5 µM (inactive) with HOP-92. The GI50 with K562 is 3.99 µM (inactive); with LOX IMVI, 15.7 µM (inactive); in the assay on MOLT-4, 3.72 µM (inactive); in the assay on OVCAR-3 it was 25.2 µM (inactive); in the assay with RXF 393 it was 21.2 µM (inactive); in the assay on SF-268, 35.7 µM (inactive). Further, the GI50 with SF-539 was 27.4 µM (inactive); in the assay on SK-OV-3, > 100 µM (inactive); with SN12C it was 37.8 µM (inactive); with UACC-257, > 10 µM (inactive).
Take `CCOC(=O)C(C)(NC(=O)c1ccc(NCc2ccc3nc(NC(=O)c4ccccc4)nc(NC(=O)c4ccccc4)c3c2)cc1)C(=O)OCC`: the GI50 in the assay on ACHN is 8.17 µM (inactive); with CAKI-1, 8.02 µM (inactive); with COLO 205, 40.4 µM (inactive); with EKVX, 19 µM (inactive); in the assay on HCC 2998, 25.8 µM (inactive); in the assay with HCT-15, 24.4 µM. Further, the GI50 with HOP-62 was 16.6 µM (inactive); in the assay on HOP-92, 5.62 µM (inactive); in the assay on LOX IMVI, 13.6 µM (inactive); with MOLT-4, 26.6 µM (inactive); in the assay on OVCAR-3, 5.64 µM (inactive); in the assay on RXF 393, 2.39 µM (inactive). Also, the GI50 is 8.99 µM (inactive) with SF-268; 3.51 µM (inactive) in the assay with SF-539; 12.5 µM (inactive) in the assay on SK-OV-3; 11.4 µM (inactive) in the assay on SN12C; 13.5 µM (inactive) with UACC-257.
Turning to `NCCCC(N)(C(=O)O)C(F)F` (stereo not given) [EFLORNITHINE], the GI50 was > 100 µM (inactive) in the assay on ACHN; 1570 µM (inactive) in the assay with CAKI-1; > 5000 µM (inactive) with COLO 205; > 5000 µM (inactive) in the assay with HCC 2998; 769 µM with HCT-15; > 5000 µM (inactive) in the assay with HOP-62. In addition, the GI50 is > 1890 µM (inactive) in the assay with HOP-92; > 2880 µM (inactive) in the assay with K562; 678 µM (inactive) with LOX IMVI; 3030 µM (inactive) in the assay with MOLT-4; > 3940 µM (inactive) with OVCAR-3; > 5000 µM (inactive) with RXF 393. Also, the GI50 was > 5000 µM (inactive) in the assay on SF-268; > 5000 µM (inactive) in the assay with SF-539; > 5000 µM (inactive) with SK-OV-3; > 1980 µM (inactive) with SN12C; > 5000 µM (inactive) in the assay with SNB-19; > 5000 µM (inactive) in the assay with UACC-257.
On to `CC(O)CN1C(=O)NC(Cc2ccccc2)C1=O` (stereo not given), for which the GI50 in the assay on ACHN was > 100 µM (inactive); in the assay with CAKI-1 it was > 100 µM (inactive); in the assay on COLO 205, > 100 µM (inactive); with EKVX, > 100 µM (inactive); with HCC 2998, > 100 µM (inactive); with HOP-62, 29.5 µM (inactive). Moreover, the GI50 in the assay on HOP-92, in the assay with LOX IMVI, in the assay with RXF 393, with SF-268, in the assay on SF-539 and with SN12C was > 100 µM (inactive) throughout. In addition, the GI50 with SNB-19 and in the assay with UACC-257 was > 100 µM (inactive) throughout.
Consider `OCCCOC(c1ccccc1)(c1ccccc1)c1ccccc1`, for which the GI50 in the assay on ACHN was > 100 µM (inactive); in the assay on CAKI-1 it was > 100 µM (inactive); in the assay with COLO 205, > 100 µM (inactive); with HCC 2998 it was > 100 µM (inactive); in the assay on HCT-15, more than 100 µM; in the assay on HOP-62, 39.7 µM (inactive). The GI50 with HOP-92 is 20.6 µM (inactive); in the assay on K562, > 100 µM (inactive); in the assay on LOX IMVI, 35.6 µM (inactive); with MOLT-4 it was 93.3 µM (inactive); with OVCAR-3, > 100 µM (inactive); with RXF 393, < 0.01 µM (active). The GI50 in the assay on SF-268, with SF-539, in the assay on SK-OV-3, in the assay on SN12C and with UACC-257 was > 100 µM (inactive) in each case.
On to `COc1ccc(S(=O)(=O)N(C)CC(=O)O)cc1`, for which the GI50 is > 100 µM (inactive) with ACHN; > 100 µM (inactive) with CAKI-1; > 100 µM (inactive) with COLO 205; > 100 µM (inactive) in the assay with EKVX; > 100 µM (inactive) in the assay with HCC 2998; more than 100 µM with HCT-15. In addition, the GI50 with HOP-92, with K562, in the assay with LOX IMVI, in the assay with MOLT-4, in the assay on OVCAR-3 and with RXF 393 was > 100 µM (inactive) each time. For the same compound, the GI50 with SF-268, in the assay with SF-539, with SK-OV-3, in the assay on SN12C, with SNB-19 and with UACC-257 was > 100 µM (inactive) in each case.
For `O=CN/C=C/c1cc(O)ccc1O` [ERBSTATIN], the GI50 in the assay with ACHN was 14.8 µM (inactive); with CAKI-1 it was 12.4 µM (inactive); in the assay with COLO 205 it was 11.9 µM (inactive); with EKVX it was 18.6 µM (inactive); in the assay with HCC 2998, > 100 µM (inactive); with HCT-15 it was 13.3 µM. Moreover, the GI50 was > 74.1 µM (inactive) in the assay on HOP-62; 11.6 µM (inactive) in the assay on HOP-92; 14.8 µM (inactive) in the assay with K562; 14 µM (inactive) in the assay on LOX IMVI; 22.9 µM (inactive) with MOLT-4; 9.35 µM (inactive) in the assay with OVCAR-3. Besides, the GI50 with RXF 393 is 13 µM (inactive); in the assay on SF-268, 17.2 µM (inactive); in the assay on SF-539, 22.7 µM (inactive); with SK-OV-3 it was > 62.4 µM (inactive); in the assay with SN12C it was 16.7 µM (inactive); in the assay with SNB-19 it was > 66.7 µM (inactive). For the same compound, in the assay with UACC-257, the GI50 is 13.5 µM (inactive).
As for `CC(C)C1=C(O)C(=O)C2=C(C1=O)C(O)CC1C(C)(C)CCCC21C` (stereo not given), the GI50 in the assay with ACHN was 3.85 µM (inactive); in the assay with CAKI-1, 8.05 µM (inactive); in the assay on COLO 205 it was 12.8 µM (inactive); with EKVX, 6.56 µM (inactive); in the assay on HCC 2998, 3.58 µM (inactive); in the assay on HCT-15 it was 3.71 µM. Also, the GI50 is 7.35 µM (inactive) in the assay with HOP-62; 3.61 µM (inactive) in the assay with HOP-92; 6.56 µM (inactive) with K562; 25.1 µM (inactive) in the assay on LOX IMVI; 25.8 µM (inactive) in the assay on MOLT-4; 11.4 µM (inactive) in the assay on OVCAR-3. Moreover, the GI50 was 2.14 µM (inactive) in the assay with RXF 393; 6 µM (inactive) with SF-268; 16.9 µM (inactive) in the assay on SF-539; 15 µM (inactive) in the assay with SK-OV-3; 7.26 µM (inactive) with SN12C; 5.38 µM (inactive) in the assay with SNB-19. For the same compound, the GI50 in the assay on UACC-257 is 11.3 µM (inactive).
For the compound `COc1ccccc1/C=N/N=C(\N)NO`, the GI50 with ACHN is 8.22 µM (inactive); in the assay with CAKI-1 it was 7.28 µM (inactive); with COLO 205, 18.9 µM (inactive); in the assay with EKVX, 18.9 µM (inactive); in the assay on HCC 2998 it was 4.68 µM (inactive); in the assay with HCT-15 it was 6.32 µM. The GI50 with HOP-62 was 6 µM (inactive); in the assay on HOP-92 it was 11 µM (inactive); in the assay with K562 it was 3.65 µM (inactive); in the assay on LOX IMVI it was 4.47 µM (inactive); in the assay on MOLT-4, 12.6 µM (inactive); in the assay on OVCAR-3 it was 45.1 µM (inactive). For the same compound, the GI50 is 28 µM (inactive) in the assay with RXF 393; 20.5 µM (inactive) with SF-268; 3.03 µM (inactive) in the assay on SF-539; 71.9 µM (inactive) in the assay on SK-OV-3; 30.2 µM (inactive) with SN12C; > 100 µM (inactive) in the assay on SNB-19. Further, in the assay on UACC-257, the GI50 is 29.1 µM (inactive).
With `Cc1cc2c(c(C(N)=O)c1C)-c1ccccc1C2=O`, the GI50 in the assay on ACHN was > 100 µM (inactive); in the assay with COLO 205, > 100 µM (inactive); in the assay on EKVX, > 100 µM (inactive); in the assay with HCC 2998, > 100 µM (inactive); with HCT-15, more than 100 µM; in the assay on HOP-62, > 100 µM (inactive). For the same compound, the GI50 with HOP-92, in the assay on K562, in the assay with LOX IMVI, with MOLT-4, in the assay with OVCAR-3 and in the assay with RXF 393 was > 100 µM (inactive) each time. In addition, the GI50 with SF-268, in the assay with SF-539, with SK-OV-3, with SN12C, in the assay on SNB-19 and with UACC-257 was > 100 µM (inactive) in each case.
